Experimental data taken from US20060199206A1, “Method for identifying skin care composition-resistant skin-binding peptides” (priority 2005, published 2006).

Columns and labels:
[1] = Phage ELISA for skin binding affinity (Example 14); set-up: species or system pig; settings: 1×10^11 pfu of phage, 37° C. 15 min, TBST-0.5% washes; anti-M13 HRP conjugate; mean of at least three replicates
Method: (§1) Phage-peptide clones identified in Examples 11-13 were amplified by infecting fresh host cells (E. coli ER2338). The pigskin-bottom 96-well apparatus system described in Examples 11-13 was used for the ELISA procedure. For each clone to be tested, the pigskin well was incubated for 1 h at room temperature with 400 μL of blocking buffer, consisting of 2% non-fat dry milk (Schleicher & Schuell, Inc.) in TBS. The blocking buffer was removed by inverting the systems and blotting them dry with paper towels. The systems were rinsed 6 times with wash buffer consisting of TBST-0.05%. The wells were filled with 100 μL of TBST-0.5% containing 1 mg/mL of BSA and 1×10^11 pfu of phage. The samples were incubated at 37° C. for 15 min with slow shaking. The non-binding phage was removed by washing the wells 10 to 20 times with TBST-0.5%. Then, 100 μL of horseradish peroxidase/anti-M13 antibody conjugate (Amersham USA, Piscataway, N.J.), diluted 1:500 in the blocking buffer, was added to each well and incubated for 1 h at room temperature. The conjugate solution was removed and the wells were washed 6 times with TBST-0.05%. TMB substrate (200 μL), obtained from Pierce Biotechnology (Rockford, Ill.) was added to each well and the color was allowed to develop for between 5 to 30 min, typically for 10 min, at room temperature. Then, stop solution (200 μL of 2 M H2SO4) was added to each well and the solution was transferred to a 96-well plate and the absorbance at 450 nm (A450) was measured using a microplate spectrophotometer (Molecular Devices, Sunnyvale, Calif.). The resulting absorbance values, reported as the mean of at least three replicates, and the standard error of the mean (SEM) are given in Table 2.

[2] = Phage ELISA for skin binding affinity after body wash treatment (Example 15); set-up: species or system pig; settings: mean of at least three replicates; for Body Wash A450 ± SEM: 200 μL Johnson's Head-to-Toe Baby Wash for 30 min after phage binding; for Buffer Wash A450 ± SEM: procedure of Example 14
Method: as §1
The ELISA procedure described in Example 14 was used with the following modification. After removal of the non-binding phage peptide solution from the wells, 200 μL of Johnson's Head-to-Toe Baby Wash was added to the wells and was incubated for 30 min. The washes and color development steps described in Example 14 were followed. For the buffer wash samples, the same procedure described in Example 14 was used. […] The resulting absorbance values, reported as the mean of at least three replicates, and the standard error of the mean are given in Table 3.

[3] = stated as known; cited from earlier work

| Substance | A450 ± SEM [1] | Body Wash A450 ± SEM [2] | Buffer Wash A450 ± SEM [2] | binding affinity for skin [3] |
| --- | --- | --- | --- | --- |
| ASCPSASHADPCAH (Body wash-resistant skin-binding peptide) [Skin-cys-2] | 1.184 ± 0.044 | – | – | – |
| D21: hair-binding phage peptide used as control in Example 15, known low binding affinity for skin (RTNAADHPAAVT; Hair-binding sequence) [Clone D21, reference compound] | – | 0.549 ± 0.053 | 0.297 ± 0.004 | low binding affinity for skin |
| DACSGNGHPNNCDR (Body wash-resistant skin-binding peptide) [Skin-cys-4] | 0.852 ± 0.033 | – | – | – |
| DWCDTIIPGRTCHG (Body wash-resistant skin-binding peptide) [Skin-cys-6] | 1.657 ± 0.047 | – | – | – |
| GSSTVGRPSLYE (Body wash-resistant skin-binding peptide) [Skin-12mer-6] | 0.677 ± 0.104 | – | – | – |
| IB5: hair-binding phage peptide (Huang et al.) used as control, known low binding affinity for skin (TPPELLHGDPRS; Hair-binding peptide) | – | 0.453 ± 0.035 | 0.202 ± 0.010 | low binding affinity for skin |
| NHSNWKTAADFL (Body wash-resistant skin-binding peptide) [Skin-12mer-4] | 0.874 ± 0.039 | – | – | – |
| NLCDSARDSPRCKV (Body wash-resistant skin-binding peptide) [Skin-cys-3] | 0.927 ± 0.044 | – | – | – |
| NQAASITKRVPY (Body wash-resistant skin-binding peptide) [Skin-12mer-5] | 0.391 ± 0.036 | – | – | – |
| QLSYHAYPQANHHAP (Body wash-resistant skin-binding peptide) [Skin-15mer-1] | 1.264 ± 0.166 | 1.447 ± 0.178 | 1.031 ± 0.045 | – |
| SDTISRLHVSMT (Body wash-resistant skin-binding peptide) [Skin-12mer-7] | 1.134 ± 0.093 | – | – | – |
| SGCHLVYDNGFCDH (Body wash-resistant skin-binding peptide) [Skin-cys-1] | 1.385 ± 0.046 | 1.444 ± 0.293 | 1.182 ± 0.070 | – |
| SPLTVPYERKLL (Body wash-resistant skin-binding peptide) [Skin-12mer-8] | 0.433 ± 0.05 | – | – | – |
| SPYPSWSTPAGR (Body wash-resistant skin-binding peptide) [Skin-12mer-9] | 1.146 ± 0.131 | 2.265 ± 0.132 | 1.298 ± 0.11 | – |
| SVSVGMKPSPRP (Body wash-resistant skin-binding peptide) [Skin-12mer-2] | 0.818 ± 0.108 | – | – | – |
| TMGFTAPRFPHY (Body wash-resistant skin-binding peptide) [Skin-12mer-1] | 0.506 ± 0.097 | – | – | – |
| VQPITNTRYEGG (Body wash-resistant skin-binding peptide) [Skin-12mer-10] | 0.418 ± 0.036 | – | – | – |
| WPMHPEKGSRWS (Body wash-resistant skin-binding peptide) [Skin-12mer-11] | 0.81 ± 0.038 | – | – | – |
